According to the NIST ThermoML archive (doi:10.1016/j.jct.2005.05.012):

Tests used:
[1] = refractive index (other wavelength) (dimensionless); conditions: 101 kPa, Liquid, Wavelength=632.8 nm, Newport model 1825-C
[2] = refractive index (other wavelength) (dimensionless); xn = mol fraction of the nth substance listed; conditions: 305.5 K, 101 kPa, Liquid, Wavelength=632.8 nm, Newport model 1825-C

N#Cc1ccccc1 [benzonitrile]
[1]
Conditions | refractive index
301.4 K | 1.521
302.96 K | 1.5202
304.8 K | 1.5194
306.42 K | 1.5186
307.83 K | 1.5179
309.65 K | 1.517

CCCCCCCCCCCCCCCCCC [octadecane]
[1]
Conditions | refractive index
301.97 K | 1.4339
303.42 K | 1.4333
304.68 K | 1.4328
306.38 K | 1.4321
307.84 K | 1.4315
309.28 K | 1.4307

CCCCCCCCCCCCCCCCCC [octadecane] + N#Cc1ccccc1
[2]
Conditions | refractive index
x2 = 0.0996 | 1.4316
x2 = 0.1986 | 1.4362
x2 = 0.2992 | 1.4398
x2 = 0.4025 | 1.4447
x2 = 0.4955 | 1.4499
x2 = 0.5947 | 1.4567
x2 = 0.7985 | 1.4777
x2 = 0.8876 | 1.4917
